# From PubChem BioAssay AID2683 (Broad Institute, 2010)
# “And” between values parts separate entries of the source, which are not always exact repeats. Equal entries are not always repeated. The source made the active and inactive calls.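 How the source made its calls: active means rising-signal curve whose EC50 is at most tenfold above the top concentration tested; inconclusive means flat fit with activity between 30% and 70%, or invalid fit; inactive means the rest.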
# Tested on: S. cerevisiae SKY197-pL101 polyadenylation reporter, beta-gal luminescence, 9 h
# Experiment: elevated beta-gal reporter luminescence in yeast – S. cerevisiae SKY197-pL101, polyadenylation inhibitor project, dose response (AID 2683)
row,Compound,EC50
1,N#C/C(=C\c1ccco1)c1nc2ccccc2[nH]1,> 12 µM (inactive)
2,Cc1ccc2nc(/C(C#N)=C/c3ccc(C)o3)[nH]c2c1,> 12 µM (inactive)
3,N#C/C(=C\c1cccc([N+](=O)[O-])c1)c1nc2ccccc2[nH]1,> 12 µM (inactive)

# Results, then the molecule that gave them:
row,EC50,Compound
1,10.8 µM,N#C/C(=C\c1ccc([N+](=O)[O-])o1)c1nc2ccccc2[nH]1
2,8.25 µM,N#C/C(=C/c1ccc([N+](=O)[O-])o1)c1nc2ccccc2[nH]1
3,5.83 µM,Cc1cccc2[nH]c(/C(C#N)=C/c3ccc([N+](=O)[O-])o3)nc12
4,6.5 µM and 7.25 µM,Cc1ccc2nc(/C(C#N)=C/c3ccc([N+](=O)[O-])o3)[nH]c2c1
